Source: patent US20050069877A1, “Protein modification and maintenance molecules” (priority 2001, published 2005)

Columns and labels:
[1] = test system: expression of SEQ ID NO:35 in human peripheral blood mononuclear cells (PBMCs); test: Microarray expression of SEQ ID NO:35 in prednisone-treated PBMCs; format: cell-based; conditions: PBMCs pooled from 6 healthy donors, 5 and 25 μM, 24 hours, compared to untreated controls
From the text: (§1) Full length cDNAs, Expressed Sequence Tags (ESTs), or fragments or oligomers thereof may comprise the elements of the microarray. Fragments or oligomers suitable for hybridization can be selected using software well known in the art such as LASERGENE software (DNASTAR). The array elements are hybridized with polynucleotides in a biological sample. The polynucleotides in the biological sample are conjugated to a fluorescent label or other molecular tag for ease of detection. After hybridization, nonhybridized nucleotides from the biological sample are removed, and a fluorescence scanner is used to detect hybridization at each array element. Alternatively, laser desorbtion and mass spectrometry may be used for detection of hybridization. The degree of complementarity and the relative abundance of each polynucleotide which hybridizes to an element on the microarray may be assessed. In one embodiment, microarray preparation and usage is described in detail below.
(§2) Total RNA is isolated from tissue samples using the guanidinium thiocyanate method and poly(A)^+ RNA is purified using the oligo-(dT) cellulose method. […]
(§3) Sequences of the present invention are used to generate array elements. […] Array elements are amplified in thirty cycles of PCR from an initial quantity of 1-2 ng to a final quantity greater than 5 μg. […]

[2] = test system: expression of SEQ ID NO:33 in human C3A liver cell line; test: Microarray expression of SEQ ID NO:33 in compound-treated C3A liver cells; format: cell-based; conditions: human C3A liver cell line incubated for varying lengths of time with compound
From the text: The array elements are hybridized with polynucleotides in a biological sample. The polynucleotides in the biological sample are conjugated to a fluorescent label or other molecular tag for ease of detection. After hybridization, nonhybridized nucleotides from the biological sample are removed, and a fluorescence scanner is used to detect hybridization at each array element. […] The degree of complementarity and the relative abundance of each polynucleotide which hybridizes to an element on the microarray may be assessed.
Total RNA is isolated from tissue samples using the guanidinium thiocyanate method and poly(A)^+ RNA is purified using the oligo-(dT) cellulose method. Each poly(A)^+ RNA sample is reverse transcribed using MMLV reverse-transcriptase, 0.05 pg/μl oligo-(dT) primer (21 mer), 1× first strand buffer, 0.03 units/μl RNase inhibitor, 500 μM dATP, 500 μM dGTP, 500 μM dTTP, 40 μM dCTP, 40 μM dCTP-Cy3 (BDS) or dCTP-Cy5 (Amersham Biosciences). The reverse transcription reaction is performed in a 25 ml volume containing 200 ng poly(A)^+ RNA with GEMBRIGHT kits (Incyte). Specific control poly(A)^+ RNAs are synthesized by in vitro transcription from non-coding yeast genomic DNA. […]

[3] = greater than progesterone; cited from earlier work
[4] = intranasal; greater than those produced by hydrocortisone; cited from earlier work
[5] = test system: expression of SEQ ID NO:44 in peripheral blood mononuclear cells; test: Microarray expression of SEQ ID NO:44 in IL12-treated PBMCs; format: cell-based, human; conditions: PBMCs from a pool of healthy donors, 1 ng/ml, 24 hours
From the text: as §1, §2, §3

## C[C@]12C=CC(=O)C=C1CC[C@@H]1[C@@H]2C(=O)C[C@@]2(C)[C@H]1CC[C@]2(O)C(=O)CO [prednisone]
[1]
  expression of SEQ ID NO:35: decreased by at least two-fold

## 6α-methyl-17-hydroxyprogesterone [medroxyprogesterone]
[2]
  expression of SEQ ID NO:33: reduced by at least two fold
[3]
  pharmacological activity relative to progesterone: about 15 times

## C[C@H]1C[C@H]2[C@@H]3CCC4=CC(=O)C=C[C@]4(C)[C@@]3(Cl)[C@@H](O)C[C@]2(C)[C@@]1(O)C(=O)CO [beclomethasone]
[2]
  expression of SEQ ID NO:33: reduced by at least two fold
[4]
  anti-inflammatory and vasoconstrictive effects relative to hydrocortisone: 5000 times

B1: IL12: pleiotropic cytokine produced by macrophages and B lymphocytes (protein, UniProt P29459 23-219; P29460 23-328, looked up)
Interleukin-12 subunit alpha: RNLPVATPDPGMFPCLHHSQNLLRAVSNMLQKARQTLEFYPCTSEEIDHEDITKDKTSTVEACLPLELTKNESCLNSRETSFITNGSCLASRKTSFMMALCLSSIYEDLKMYQVEFKTMNAKLLMDPKRQIFLDQNMLAVIDELMQALNFNSETVPQKSSLEEPDFYKTKIKLCILLHAFRIRAVTIDRVMSYLNAS
Interleukin-12 subunit beta: IWELKKDVYVVELDWYPDAPGEMVVLTCDTPEEDGITWTLDQSSEVLGSGKTLTIQVKEFGDAGQYTCHKGGEVLSHSLLLLHKKEDGIWSTDILKDQKEPKNKTFLRCEAKNYSGRFTCWWLTTISTDLTFSVKSSRGSSDPQGVTCGAATLSAERVRGDNKEYEYSVECQEDSACPAAEESLPIEVMVDAVHKLKYENYTSSFFIRDIIKPDPPKNLQLKPLKNSRQVEVSWEYPDTWSTPHSYFSLTFCVQVQGKSKREKKDRVFTDKTSATVICRKNASISVRAQDRYYSSSWSEWASVPCS
[5]
  expression of SEQ ID NO:44: decreased by at least two-fold
